# Tests used:
# Format in all cases: physicochemical
# [1] = Glass transition temperature, crystallization temperature and quantity of crystallization heat (DSC); conditions: for Glass transition temperature Rating / Glass transition temperature / Crystallization temperature: DSC; for Glass transition temperature: 20° C./min, nitrogen gas flow; for Glass transition temperature-Crystallization temperature: rating of the difference; for Crystallization temperature: exothermic peak
# Method: A sample (about 10 mg) placed in a non-sealed aluminum container was heated to a temperature higher than the melting point at a temperature rising rate of 20° C./min in a nitrogen gas flow (50 ml/min). After being rapidly cooled, the sample was again heated to a temperature higher than the melting point at a temperature rising rate of 20° C./min in a nitrogen gas flow (30 ml/min). After being rapidly cooled, the sample was again heated to 400° C. at a temperature rising rate of 20° C./min in a nitrogen gas flow (30 ml/min), to conduct a differential scanning calorimetric analysis using DSC/TA-50WS manufactured by Shimadzu Corporation. The middle point of the region at which the base line turned discontinuous (the point at which the specific heat reduced to half) was taken as the glass transition temperature (Tg) and the temperature of the exothermic peak after the discontinuous region was taken as the crystallization temperature. The quantity of crystallization heat was determined by the area of the region which was surrounded by the exothermic peak and the base line. The sample was rated A when meeting Tg≧130° C., and rated C when meeting Tg≦130° C. Also, the sample was rated A when meeting (glass transition temperature)−(crystallization temperature)≧70° C., and rated C when meeting (glass transition temperature)-(crystallization temperature)<70° C.
# [2] = Solubility in safety solvent; conditions: 23° C.; PGMEA, PGME, ethyl lactate, butyl acetate, methyl 3-methoxypropionate, ethyl propionate
# Method: The solubility of the compound B was tested at 23° C. using propylene glycol monomethyl ether acetate, propylene glycol monomethyl ether, ethyl lactate, butyl acetate, methyl 3-methoxypropionate and ethyl propionate. The sample was rated A when dissolved in any one of the above solvents in a concentration of 5 wt % or more, rated B when dissolved in a concentration of 0.1 to 5 wt %, and rated C when dissolved only in a concentration of less than 0.1 wt %.
# [3] = Film-forming property (spin-coated film on silicon wafer); design: key: rated C when the film was clouded or its surface was roughened; rated B when the film was partly clouded or roughened; rated A when the film had a good surface flatness without causing clouding; conditions: 3% by weight solution spin-coated, 110° C. 3 min
# Excerpt: A 3% by weight solution of the compound B or a mixture (compound B and polyphenol A) in PGME/PE (1/2 by weight) or acetone when not dissolved in PGME/PE was spin-coated on a silicon wafer which had been surface-treated with a silane coupling agent, to form a resist film with a thickness of about 0.05 μm.
# [4] = Adhesion to silicon substrate; design: key: rated A when the film was not peeled from the silicon wafer; rated C when peeled off; conditions: silicon wafer surface-treated with silane coupling agent
# Method: The resist film formed in (2-2) was tested for its adhesion to the silicon wafer which was surface-treated with a silane coupling agent. The sample was rated A when the film was not peeled from the silicon wafer, and rated C when peeled off.
Glass transition temperature Rating [1],Glass transition temperature [1] [°C],film-forming property [3],Adhesion to silicon substrate [4],SMILES,Glass transition temperature-Crystallization temperature [1],Crystallization temperature [1] [°C],Solubility to safety solvent [2]
A (rated A when meeting Tg≧130° C.),144,–,–,"Cc1cc(C(c2ccc3cc(C(c4cc(C)c(O)cc4C)c4cc(C)c(O)cc4C)ccc3c2)c2cc(C)c(O)cc2C)c(C)cc1O [Compound 101, tetrakis(2,5-xylenol)-2,6-naphthalenedialdehyde]",A (rated A when meeting (glass transition temperature)−(crystallization temperature)≧70° C.),–,–
A (rated A when meeting Tg≧130° C.),136,–,–,Cc1cc(C(c2ccc3cc(C(c4cc(C)c(O)c(C)c4C)c4cc(C)c(O)c(C)c4C)ccc3c2)c2cc(C)c(O)c(C)c2C)c(C)c(C)c1O [Compound 102],A (rated A when meeting (glass transition temperature)−(crystallization temperature)≧70° C.),–,–
A (rated A when meeting Tg≧130° C.),145,–,–,Cc1cc(C(c2ccc3ccc(C(c4cc(C)c(O)cc4C)c4cc(C)c(O)cc4C)cc3c2)c2cc(C)c(O)cc2C)c(C)cc1O [Compound 104],A (rated A when meeting (glass transition temperature)−(crystallization temperature)≧70° C.),287,–
A (rated A when meeting Tg≧130° C.),137,–,–,Cc1cc(C(c2ccc(-c3cccc(-c4ccc(C(c5cc(C)c(O)cc5C)c5cc(C)c(O)cc5C)cc4)c3)cc2)c2cc(C)c(O)cc2C)c(C)cc1O [Compound 106],A (rated A when meeting (glass transition temperature)−(crystallization temperature)≧70° C.),–,–
A (rated A when meeting Tg≧130° C.),147,–,–,Cc1cc(C(c2ccc(-c3ccc(-c4ccc(C(c5cc(C)c(O)cc5C)c5cc(C)c(O)cc5C)cc4)cc3)cc2)c2cc(C)c(O)cc2C)c(C)cc1O [Compound 107],A (rated A when meeting (glass transition temperature)−(crystallization temperature)≧70° C.),–,–
–,–,A,A,CCOC(C)Oc1cc(C)c(C(c2ccc3cc(C(c4cc(C)c(O)cc4C)c4cc(C)c(O)cc4C)ccc3c2)c2cc(C)c(O)cc2C)cc1C (stereo not shown) [Compound 109],–,–,A (rated A when dissolved in any one of the above solvents in a concentration of 5 wt % or more)
–,–,A,A,Cc1cc(C(c2ccc3cc(C(c4cc(C)c(O)cc4C)c4cc(C)c(OC(C)OC5CCCCC5)cc4C)ccc3c2)c2cc(C)c(O)cc2C)c(C)cc1O (stereo not shown) [Compound 110],–,–,A (rated A when dissolved in any one of the above solvents in a concentration of 5 wt % or more)
–,–,A,A,CCOC(C)Oc1c(C)cc(C(c2ccc3cc(C(c4cc(C)c(O)c(C)c4C)c4cc(C)c(O)c(C)c4C)ccc3c2)c2cc(C)c(O)c(C)c2C)c(C)c1C (stereo not shown) [Compound 111],–,–,A (rated A when dissolved in any one of the above solvents in a concentration of 5 wt % or more)
–,–,A,A,Cc1cc(C(c2ccc3cc(C(c4cc(C)c(O)c(C)c4C)c4cc(C)c(OC(C)OC5CCCCC5)c(C)c4C)ccc3c2)c2cc(C)c(O)c(C)c2C)c(C)c(C)c1O (stereo not shown) [Compound 112],–,–,A (rated A when dissolved in any one of the above solvents in a concentration of 5 wt % or more)
–,–,A,A,Cc1cc(O)c(C(C)C)cc1C(c1ccc2cc(C(c3cc(C(C)C)c(O)cc3C)c3cc(C(C)C)c(OC(C)OC4CCCCC4)cc3C)ccc2c1)c1cc(C(C)C)c(O)cc1C (stereo not shown) [Compound 113],–,–,A (rated A when dissolved in any one of the above solvents in a concentration of 5 wt % or more)
–,–,A,A,Cc1cc(C(c2ccc3ccc(C(c4cc(C)c(O)c(C)c4C)c4cc(C)c(OC(C)OC5CCCCC5)c(C)c4C)cc3c2)c2cc(C)c(O)c(C)c2C)c(C)c(C)c1O (stereo not shown) [Compound 114],–,–,A (rated A when dissolved in any one of the above solvents in a concentration of 5 wt % or more)
–,–,A,A,Cc1cc(C(c2ccc(-c3cccc(-c4ccc(C(c5cc(C)c(O)cc5C)c5cc(C)c(OC(C)OC6CCCCC6)cc5C)cc4)c3)cc2)c2cc(C)c(O)cc2C)c(C)cc1O (stereo not shown) [Compound 115],–,–,A (rated A when dissolved in any one of the above solvents in a concentration of 5 wt % or more)
–,–,A,A,Cc1cc(C(c2ccc(-c3ccc(-c4ccc(C(c5cc(C)c(O)cc5C)c5cc(C)c(OC(C)OC6CCCCC6)cc5C)cc4)cc3)cc2)c2cc(C)c(O)cc2C)c(C)cc1O (stereo not shown) [Compound 116],–,–,A (rated A when dissolved in any one of the above solvents in a concentration of 5 wt % or more)
–,–,A,A,Cc1cc(C(c2cc(C(c3cc(C)c(OC(=O)OC(C)(C)C)c(C)c3C)c3cc(C)c(OC(=O)OC(C)(C)C)c(C)c3C)cc(C(c3cc(C)c(OC(=O)OC(C)(C)C)c(C)c3C)c3cc(C)c(OC(=O)OC(C)(C)C)c(C)c3C)c2)c2cc(C)c(OC(=O)OC(C)(C)C)c(C)c2C)c(C)c(C)c1OC(=O)OC(C)(C)C [Compound 117],–,–,A (rated A when dissolved in any one of the above solvents in a concentration of 5 wt % or more)
–,–,A,A,Cc1cc(C(c2ccc3cc(C(c4cc(C)c(O)cc4C)c4cc(C)c(OC(C)OC5CCCCC5)cc4C)ccc3c2)c2cc(C)c(O)cc2C)c(C)cc1O (stereo not shown) [Compound 118],–,–,A (rated A when dissolved in any one of the above solvents in a concentration of 5 wt % or more)
–,–,A,A,Cc1cc(C(c2cc(C(c3cc(C)c(O)c(C)c3C)c3cc(C)c(O)c(C)c3C)cc(C(c3cc(C)c(O)c(C)c3C)c3cc(C)c(OC(C)OC4CCCCC4)c(C)c3C)c2)c2cc(C)c(O)c(C)c2C)c(C)c(C)c1O (stereo not shown) [Compound 119],–,–,A (rated A when dissolved in any one of the above solvents in a concentration of 5 wt % or more)
–,–,–,–,"CC(C)(C)OC(=O)Oc1ccc(C(C)(C)c2ccc(OC(=O)OC(C)(C)C)cc2)cc1 [Compound 201, reference compound]",–,–,C (rated C when dissolved only in a concentration of less than 0.1 wt %)
–,–,–,–,"CC(C)(C)OC(=O)Oc1ccc(C2(c3ccc(OC(=O)OC(C)(C)C)cc3)CCCCC2)cc1 [Compound 202, reference compound]",–,–,C (rated C when dissolved only in a concentration of less than 0.1 wt %)
–,–,A,A,"CC(C)(C)OC(=O)Oc1ccc(C(c2ccc(OC(=O)OC(C)(C)C)cc2)c2ccc(OC(=O)OC(C)(C)C)cc2)cc1 [Compound 203, reference compound]",–,–,C (rated C when dissolved only in a concentration of less than 0.1 wt %)
–,–,B,A,"CC(C)(C)OC(=O)Oc1ccc(-c2cc(-c3ccc(OC(=O)OC(C)(C)C)cc3)cc(-c3ccc(OC(=O)OC(C)(C)C)cc3)c2)cc1 [Compound 204, reference compound]",–,–,A (rated A when dissolved in any one of the above solvents in a concentration of 5 wt % or more)
C (rated C when meeting Tg≦130° C.),72,–,–,"Cc1cc(C(C)(c2ccc(O)c(C)c2)c2ccc3ccccc3c2)ccc1O [Compound 206, 1-(2-naphthyl)-1,1-bis(3-methyl-4-hydroxyphenyl)ethane, reference compound]",A (rated A when meeting (glass transition temperature)−(crystallization temperature)≧70° C.),–,–

SMILES,Glass transition temperature Rating [1],Glass transition temperature [1] [°C],film-forming property [3],Adhesion to silicon substrate [4],Glass transition temperature-Crystallization temperature [1],Crystallization temperature [1] [°C],Solubility to safety solvent [2]
"Oc1ccc(C2(c3ccc(O)cc3)c3ccccc3-c3ccccc32)cc1 [Compound 209, bisphenol fluorene, reference compound]",C (rated C when meeting Tg≦130° C.),101,–,–,C (rated C when meeting (glass transition temperature)-(crystallization temperature)<70° C.),157.7,–
